Patent US11077128B2, “Selective inhibitors of Alpha2-containing isoforms of Na,K-ATPase and use thereof for reduction of intraocular pressure” (Yeda Research and Development Co. Ltd., priority 2015, dated 2021)
Read-outs that look alike come from different tables or passages of the source.

Experiments:
[1] = test system: human Na,K-ATPase α2β3FXYD1; assay: biochemical; format: biochemical
[2] = test system: IOP in rabbits; format: in vivo, New Zealand white rabbits; details: one drop topically prior to 4AP, IOP over 5 hours
[3] = biological target: human Na,K-ATPase α2β1FXYD1 (Homo sapiens, UniProt P50993); assay: biochemical; format: biochemical
[4] = test system: IOP in rabbits; assay: Lowering of basal IOP in rabbits, topical; format: in vivo, New Zealand white rabbits; details: for effect on lowering the basal IOP: one drop of 1 mM solution, other eye PBS
[5] = biological target: human Na,K-ATPase α1β1FXYD1 (Homo sapiens (Human), UniProt P05023); assay: biochemical
[6] = biological target: human Na,K-ATPase α2β3FXYD1 (Homo sapiens (Human), UniProt P50993); assay: biochemical; format: biochemical
[7] = biological target: human Na,K-ATPase α2β2FXYD1 (Homo sapiens (Human), UniProt P50993); assay: biochemical

## CC1CN(CC2CC2)CCC(O[C@@H]2C(C)O[C@@H](O[C@@H]3C(C)O[C@@H](O[C@H]4CC[C@@]5(C)C(CCC6C5CC(O)[C@]5(C)[C@@H](C7=CC(=O)OC7)CC[C@]65O)C4)C[C@@H]3O)C[C@@H]2O)O1 (stereo in doubt) [DMcP, 4-((3S,5R,8R,9S,10S,12R,13S,14S,17R)-3-(((2R,4S,5S,6R)-5-(((2S,4S,5S,6R)-5-((4-(cyclopropylmethyl)-2-methyl-1,4-oxazepan-7-yl)oxy)-4-hydroxy-6-methyltetrahydro-2H-pyran-2-yl)oxy)-4-hydroxy-6-methyltetrahydro-2H-pyran-2-yl)oxy)-12,14-dihydroxy-10,13-dimethylhexadecahydro-1H-cyclopenta[a]phenanthren-17-yl)furan-2(5H)-one]
[1]
  Selectivity Ki ratio α1β1/α2β3: 22
[2]
  concentration that prevents the rise of the 4AP-induced IOP: 0.01 mM
[3]
  Selectivity Ki ratio α1β1/α2β1: 5.2

## CC1CN(C2CCC2)CCC(O[C@@H]2C(C)O[C@@H](O[C@@H]3C(C)O[C@@H](O[C@H]4CC[C@@]5(C)C(CCC6C5CC(O)[C@]5(C)[C@@H](C7=CC(=O)OC7)CC[C@]65O)C4)C[C@@H]3O)C[C@@H]2O)O1 (stereo in doubt) [DcB, 4-((3S,5R,8R,9S,10S,12R,13S,14S,17R)-3-(((2R,4S,5S,6R)-5-(((2S,4S,5S,6R)-5-((4-cyclobutyl-2-methyl-1,4-oxazepan-7-yl)oxy)-4-hydroxy-6-methyltetrahydro-2H-pyran-2-yl)oxy)-4-hydroxy-6-methyltetrahydro-2H-pyran-2-yl)oxy)-12,14-dihydroxy-10,13-dimethylhexadecahydro-1H-cyclopenta[a]phenanthren-17-yl)furan-2(5H)-one]
[1]
  Selectivity Ki ratio α1β1/α2β3: 33
[2]
  concentration that prevents the rise of the 4AP-induced IOP: 0.01 mM
[4]; 2 mM
  reduction of basal IOP at higher concentration: reduces the IOP similarly to 1 mM DcB

## CC1CN(CC2CC2)CCC(O[C@@H]2C(C)O[C@@H](OC3C(C)OC(O[C@H]4CC[C@@]5(C)C(CCC6C5CC[C@]5(C)[C@@H](C7=CC(=O)OC7)CC[C@]65O)C4)C[C@@H]3O)C[C@@H]2O)O1 (stereo in doubt) [DtxMcP, 4-((3S,5R,8R,9S,10S,13R,14S,17R)-3-(((2S,4S,5R,6R)-5-(((2S,4S,5S,6R)-5-((4-(cyclopropylmethyl)-2-methyl-1,4-oxazepan-7-yl)oxy)-4-hydroxy-6-methyltetrahydro-2H-pyran-2-yl)oxy)-4-hydroxy-6-methyltetrahydro-2H-pyran-2-yl)oxy)-14-hydroxy-10,13-dimethylhexadecahydro-1H-cyclopenta[a]phenanthren-17-yl)furan-2(5H)-one]
[5]
  Ki: 25 ± 4 nM
[6]
  Ki: 3.7 ± 0.5 nM
  Ki reduced compared to digoxin: about 10 fold
[3]
  Ki: 4.2 ± 0.4 nM
[7]
  Ki: 5.4 ± 1.2 nM

## CC1CN(C2CCC2)CCC(O[C@@H]2C(C)O[C@@H](OC3C(C)OC(O[C@H]4CC[C@@]5(C)C(CCC6C5CC[C@]5(C)[C@@H](C7=CC(=O)OC7)CC[C@]65O)C4)C[C@@H]3O)C[C@@H]2O)O1 (stereo in doubt) [DtxcB, 4-((3S,5R,8R,9S,10S,13R,14S,17R)-3-(((2S,4S,5R,6R)-5-(((2S,4S,5S,6R)-5-((4-cyclobutyl-2-methyl-1,4-oxazepan-7-yl)oxy)-4-hydroxy-6-methyltetrahydro-2H-pyran-2-yl)oxy)-4-hydroxy-6-methyltetrahydro-2H-pyran-2-yl)oxy)-14-hydroxy-10,13-dimethylhexadecahydro-1H-cyclopenta[a]phenanthren-17-yl)furan-2(5H)-one]
[5]
  Ki: 30.7 ± 7.2 nM
[6]
  Ki: 4.3 ± 0.6 nM
  Ki reduced compared to digoxin: about 10 fold
[3]
  Ki: 5.4 ± 0.5 nM
[7]
  Ki: 5.3 ± 0.8 nM

## CC1CN(CC(F)(F)F)CCC(O[C@@H]2[C@H](C)O[C@@H](O[C@@H]3[C@H](C)O[C@@H](O[C@H]4CC[C@@]5(C)C(CCC6C5C[C@H](O)[C@]5(C)[C@@H](C7=CC(=O)OC7)CC[C@]65O)C4)C[C@@H]3O)C[C@@H]2O)O1 (stereo partly shown) [DCF3]
[1]
  Selectivity Ki ratio α1β1/α2β3: 9.6
[3]
  Selectivity Ki ratio α1β1/α2β1: 4.1

## CCN1CCC(O[C@@H]2[C@H](C)O[C@@H](O[C@@H]3[C@H](C)O[C@@H](O[C@H]4CC[C@@]5(C)C(CCC6C5C[C@H](O)[C@]5(C)[C@@H](C7=CC(=O)OC7)CC[C@]65O)C4)C[C@@H]3O)C[C@@H]2O)OC(C)C1 (stereo partly shown) [DEt]
[1]
  Selectivity Ki ratio α1β1/α2β3: 9.5
[3]
  Selectivity Ki ratio α1β1/α2β1: 5.9

## CC1CN(CC(N)=O)CCC(OC2C(O)CC(OC3C(O)CC(OC4CCC5(C)C(CCC6C5CC(O)C5(C)C(C7=CC(=O)OC7)CCC65O)C4)OC3C)OC2C)O1 (stereo not shown) [DGlyN, reference compound]
[4]
  effect on lowering the basal IOP: coincides with other observations

## CC1CN(C)CCC(O[C@@H]2[C@H](C)O[C@@H](O[C@@H]3[C@H](C)O[C@@H](O[C@H]4CC[C@@]5(C)C(CCC6C5C[C@H](O)[C@]5(C)[C@@H](C7=CC(=O)OC7)CC[C@]65O)C4)C[C@@H]3O)C[C@@H]2O)O1 (stereo partly shown) [DMe]
[1]
  Selectivity Ki ratio α1β1/α2β3: 9.5
[3]
  Selectivity Ki ratio α1β1/α2β1: 6.7
[4]
  effect on lowering the basal IOP: coincides with other observations

## CCCN1CCC(O[C@@H]2[C@H](C)O[C@@H](O[C@@H]3[C@H](C)O[C@@H](O[C@H]4CC[C@@]5(C)C(CCC6C5C[C@H](O)[C@]5(C)[C@@H](C7=CC(=O)OC7)CC[C@]65O)C4)C[C@@H]3O)C[C@@H]2O)OC(C)C1 (stereo partly shown) [DP]
[1]
  Selectivity Ki ratio α1β1/α2β3: 8.8
[3]
  Selectivity Ki ratio α1β1/α2β1: 4.8

## CC1CN(C[Si](C)(C)C)CCC(OC2C(O)CC(OC3C(O)CC(OC4CCC5(C)C(CCC6C5CC(O)C5(C)C(C7=CC(=O)OC7)CCC65O)C4)OC3C)OC2C)O1 (stereo not shown) [DTMS]
[1]
  Selectivity Ki ratio α1β1/α2β3: 6.5
[3]
  Selectivity Ki ratio α1β1/α2β1: 3

## C[C@H]1O[C@@H](O[C@H]2[C@@H](O)C[C@H](O[C@H]3[C@@H](O)C[C@H](O[C@H]4CC[C@@]5(C)[C@H](CC[C@@H]6[C@@H]5C[C@@H](O)[C@]5(C)[C@@H](C7=CC(=O)OC7)CC[C@]65O)C4)O[C@@H]3C)O[C@@H]2C)C[C@H](O)[C@@H]1O [Digoxin, digoxin, reference compound]
[4]
  effect on lowering the basal IOP: neither digoxin nor DiB had a significant effect

## CC1CN(C(C)(C)C)CCC(O[C@@H]2[C@H](C)O[C@@H](O[C@@H]3[C@H](C)O[C@@H](O[C@H]4CC[C@@]5(C)C(CCC6C5C[C@H](O)[C@]5(C)[C@@H](C7=CC(=O)OC7)CC[C@]65O)C4)C[C@@H]3O)C[C@@H]2O)O1 (stereo partly shown) [DtB]
[1]
  Selectivity Ki ratio α1β1/α2β3: 8.2
[3]
  Selectivity Ki ratio α1β1/α2β1: 6.2

## CC(=O)O[C@H]1C[C@H](O[C@H]2[C@@H](OC(C)=O)C[C@H](O[C@H]3CC[C@@]4(C)[C@H](CC[C@@H]5[C@@H]4C[C@@H](OC(C)=O)[C@]4(C)[C@@H](C6=CC(=O)OC6)CC[C@]54O)C3)O[C@@H]2C)O[C@H](C)[C@H]1OC1CCN(C2CCC2)CC(C)O1 (stereo partly drawn) [TrisAcDcB, (2R,3R,4S,6R)-6-(((3S,5R,8R,9S,10S,12R,13S,14S,17R)-12-acetoxy-14-hydroxy-10,13-dimethyl-17-(5-oxo-2,5-dihydrofuran-3-yl)hexadecahydro-1H-cyclopenta[a]phenanthren-3-yl)oxy)-3-(((2S,4S,5R,6R)-4-acetoxy-5-((4-cyclobutyl-2-methyl-1,4-oxazepan-7-yl)oxy)-6-methyltetrahydro-2H-pyran-2-yl)oxy)-2-methyltetrahydro-2H-pyran-4-yl acetate]
[4]; 0.05-0.2 mM
  time to minimum IOP: 5 to 6 h
[4]; dropped from 15-16 mmHg, 0.05-0.2 mM
  minimum IOP: 12 mmHg
[4]; one 30 μl drop, 0.05, 0.1, 0.2 mM
  effect on basal IOP in the first hours (lag): no effect was observed at the first four hours
[4]; prodrug, 0.05-0.2 mM
  time of return of IOP to the control level: 12 h
[4]; rabbit, in vivo
  maximal effect on IOP compared with parent DcB: essentially equal to that produced by the parent DcB

## [O]=[V]([OH])([OH])[OH] [vanadate, reference compound]
[6]; read-out: apparent vanadate affinity (Ki vanadate) α2β3
  Ki: 19000 nM
